In the NIST ThermoML archive (doi:10.1016/j.tca.2013.11.010):

Tests used:
[1] = refractive index (Na D-line) (dimensionless); conditions: 101.33 kPa, Liquid, Standard Abbe refractometry
[2] = for surface tension liquid-gas: Drop volume; for viscosity / speed of sound / mass density: 101.33 kPa; for viscosity / speed of sound / mass density / vapor or sublimation pressure: Liquid; for viscosity: Capillary tube (Ostwald / Ubbelohde) method; for speed of sound: Sing-around technique in a fixed-path interferometer; for mass density: Vibrating tube method; for vapor or sublimation pressure: Ebulliometric method (Recirculating still)
[3] = relative permittivity at various frequencies (dimensionless); conditions: 101.3 kPa, Liquid, Frequency=2 MHz, Parallel plate capacitor

COC(=O)C(C)O (stereo unspecified) [methyl 2-hydroxypropanoate]
Conditions | mass density, [2] [kg/m3] | refractive index, [1] | relative permittivity, [3] | speed of sound, [2] [m/s] | surface tension liquid-gas, [2] [mN/m] | vapor or sublimation pressure, [2] [kPa] | viscosity, [2] [mPa·s]
278.15 K | 1109.61 | – | 18.379 | 1416.4 | 35.05 | – | 5.21
280.65 K | 1106.86 | – | 18.095 | 1407.1 | 34.8 | – | 4.706
283.15 K | 1104.11 | 1.41831 | 17.817 | 1397.6 | 34.53 | – | 4.281
285.65 K | 1101.34 | 1.41722 | 17.634 | 1387.9 | 34.25 | – | 3.916
288.15 K | 1098.57 | 1.41613 | 17.353 | 1378.2 | 34.04 | – | 3.588
290.65 K | 1095.79 | 1.41502 | 17.06 | 1368.2 | 33.73 | – | 3.299
293.15 K | 1093.01 | 1.41392 | 16.779 | 1358.4 | 33.47 | – | 3.043
295.65 K | 1090.23 | 1.41281 | 16.493 | 1348.6 | 33.14 | – | 2.819
298.15 K | 1087.43 | 1.41171 | 16.21 | 1338.8 | 32.9 | – | 2.618
300.65 K | 1084.64 | 1.41061 | 15.923 | 1329.2 | 32.6 | – | 2.438
303.15 K | 1081.83 | 1.40949 | 15.647 | 1319.5 | 32.25 | 0.692 | 2.277
305.65 K | 1079.02 | 1.40837 | 15.412 | 1309.9 | 31.95 | – | 2.132
308.15 K | 1076.2 | 1.40725 | 15.093 | 1300.4 | 31.58 | 0.967 | 2
310.65 K | 1073.38 | 1.40614 | 14.861 | 1290.9 | 31.23 | – | 1.881
313.15 K | 1070.55 | 1.40502 | 14.598 | 1281.4 | 30.87 | 1.333 | 1.772
315.65 K | 1067.71 | 1.40386 | 14.355 | 1271.9 | 30.63 | – | 1.672
318.15 K | 1064.86 | 1.40276 | 14.127 | 1262.4 | 30.34 | 1.821 | 1.58
320.65 K | 1062.01 | 1.40164 | 13.9 | 1253 | 30.08 | – | 1.499
323.15 K | 1059.15 | 1.40051 | 13.666 | 1243.5 | 29.71 | 2.399 | 1.425
325.65 K | 1056.28 | 1.39937 | 13.359 | 1234.1 | 29.38 | – | 1.345
328.15 K | 1053.4 | 1.39821 | 13.113 | 1224.6 | 29.03 | 3.173 | 1.29
330.65 K | 1050.52 | 1.3971 | 12.879 | 1215.2 | 28.83 | – | 1.231
333.15 K | 1047.63 | 1.39596 | 12.631 | 1205.7 | 28.52 | 4.139 | 1.175
335.65 K | 1044.73 | 1.39479 | 12.319 | 1196.3 | 28.22 | – | 1.136
338.15 K | 1041.83 | 1.39365 | 12.012 | 1186.9 | 27.92 | 5.319 | 1.075
343.15 K | – | – | – | – | – | 6.889 | –
348.15 K | – | – | – | – | – | 8.652 | –
353.15 K | – | – | – | – | – | 10.81 | –
358.15 K | – | – | – | – | – | 13.49 | –
363.15 K | – | – | – | – | – | 16.6 | –
368.15 K | – | – | – | – | – | 20.3 | –
373.15 K | – | – | – | – | – | 24.7 | –
378.15 K | – | – | – | – | – | 29.68 | –
383.15 K | – | – | – | – | – | 35.5 | –
388.15 K | – | – | – | – | – | 42.28 | –
393.15 K | – | – | – | – | – | 50 | –
398.15 K | – | – | – | – | – | 58.68 | –
403.15 K | – | – | – | – | – | 68.64 | –
408.15 K | – | – | – | – | – | 79.85 | –
413.15 K | – | – | – | – | – | 92.5 | –
